Assay results reported in PubChem BioAssay AID330 (DTP/NCI, 2004).
Where “and” joins values, the source holds several entries; their conditions need not be identical. Equal entries are not always repeated. Inconclusive results and toxic doses are left out. The calls were made as follows: active = survival T/C of 150% or more; inactive = T/C below 125% in these data.

System: P388 leukemia ip, CD2F1 mice, survival T/C
Test: NCI In Vivo Anticancer Drug Screen. Data for tumor model P388 Leukemia (intraperitoneal) in CD2F1 (CDF1) mice
Settings: endpoint: median survival time, higher = longer survival
How it was run: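 Mice carrying the transplanted tumor received test compound or vehicle. Survival was recorded in each group, and the value is the treated-group measurement divided by that of the vehicle-treated control group.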

[1] = dose: 50.0 mg/kg/injection, schedule: Q01DX005 (ip), vehicle: Klucel (hydroxypropylcellulose) (HPC)
[2] = dose: 100.0 mg/kg/injection, schedule: Q01DX005 (ip), vehicle: Klucel (hydroxypropylcellulose) (HPC)
[3] = dose: 200.0 mg/kg/injection, schedule: Q01DX005 (ip), vehicle: Klucel (hydroxypropylcellulose) (HPC)
[4] = dose: 60.0 mg/kg/injection, schedule: Q01DX005 (ip), vehicle: saline with Tween-80
[5] = dose: 120.0 mg/kg/injection, schedule: Q01DX005 (ip), vehicle: saline with Tween-80
[6] = dose: 50.0 mg/kg/injection, schedule: Q01DX005 (ip), vehicle: saline with Tween-80
[7] = dose: 100.0 mg/kg/injection, schedule: Q01DX005 (ip), vehicle: saline with Tween-80
[8] = dose: 200.0 mg/kg/injection, schedule: Q01DX005 (ip), vehicle: saline with Tween-80
[9] = dose: 100.0 mg/kg/injection, schedule: Q01DX009 (ip), vehicle: saline with Tween-80
[10] = dose: 12.5 mg/kg/injection, schedule: Q01DX009 (ip), vehicle: saline
[11] = dose: 25.0 mg/kg/injection, schedule: Q01DX009 (ip), vehicle: saline
[12] = dose: 50.0 mg/kg/injection, schedule: Q01DX009 (ip), vehicle: saline

Measured: T/C

CC(=O)Nc1nccs1.CC(=O)Nc1nccs1.[Cl][Pt][Cl]
inactive: dose: 100.0 mg/kg/injection, schedule: Q04DX002 (ip), vehicle: saline with Tween-80 93 % of control | dose: 200.0 mg/kg/injection, schedule: Q04DX002 (ip), vehicle: saline with Tween-80 91 % of control

CC(NC(=O)OCc1ccccc1)C(=O)NC(C(=O)O)C(C)O (stereo not drawn)
inactive: [1] 98 % of control | [2] 99 % of control | [3] 96 % of control

C=C1C(=O)OC2CC(C)C3CC(OC)OC(OC)C3(C)CC12 (stereo not drawn)
inactive: dose: 50.0 mg/kg/injection, schedule: Q01DX009 (ip), vehicle: Klucel (hydroxypropylcellulose) (HPC) 105 % of control and 97 % of control | dose: 100.0 mg/kg/injection, schedule: Q01DX009 (ip), vehicle: Klucel (hydroxypropylcellulose) (HPC) 103 % of control and 114 % of control | dose: 200.0 mg/kg/injection, schedule: Q01DX009 (ip), vehicle: Klucel (hydroxypropylcellulose) (HPC) 123 % of control and 97 % of control | dose: 400.0 mg/kg/injection, schedule: Q01DX009 (ip), vehicle: Klucel (hydroxypropylcellulose) (HPC) 119 % of control

O=C(O)C1NCCC1Oc1ccccc1 (stereo not drawn)
inactive: [1] 99 % of control | [2] 104 % of control | [3] 100 % of control

CC(=O)OCC1OC(OC(C)=O)C(NC(=O)C(C)NC(=O)OCc2ccccc2)C(OC(C)=O)C1OC(C)=O (stereo not drawn)
inactive: dose: 12.5 mg/kg/injection, schedule: Q01DX009 (ip), vehicle: other 99 % of control | dose: 25.0 mg/kg/injection, schedule: Q01DX009 (ip), vehicle: other 104 % of control | dose: 50.0 mg/kg/injection, schedule: Q01DX009 (ip), vehicle: other 113 % of control | dose: 100.0 mg/kg/injection, schedule: Q01DX009 (ip), vehicle: other 104 % of control | dose: 200.0 mg/kg/injection, schedule: Q01DX009 (ip), vehicle: other 92 % of control

CC1(C#N)N=C(c2ccccc2)c2ccccc2N1C(=O)Oc1ccccc1 (stereo not drawn)
inactive: [4] 98 % of control | [5] 98 % of control

CC(C)c1cc(O)c2c(c1O)C1CC3C(C)(C)CCC[C@]23C(=O)O1 (stereo partly drawn)
inactive: dose: 4.88 mg/kg/injection, schedule: Q01DX005 (ip), vehicle: Klucel (hydroxypropylcellulose) (HPC) 95 % of control | dose: 9.75 mg/kg/injection, schedule: Q01DX005 (ip), vehicle: Klucel (hydroxypropylcellulose) (HPC) 100 % of control | dose: 19.5 mg/kg/injection, schedule: Q01DX005 (ip), vehicle: Klucel (hydroxypropylcellulose) (HPC) 100 % of control | dose: 39.0 mg/kg/injection, schedule: Q01DX005 (ip), vehicle: Klucel (hydroxypropylcellulose) (HPC) 96 % of control

CCOC(=O)C12C=CC(=O)NC1(OC)OC(C)(C)C2 (stereo not drawn)
inactive: dose: 20.0 mg/kg/injection, schedule: Q01DX001 (ip), vehicle: Klucel (hydroxypropylcellulose) (HPC) 95 % of control | dose: 40.0 mg/kg/injection, schedule: Q01DX001 (ip), vehicle: Klucel (hydroxypropylcellulose) (HPC) 93 % of control | dose: 80.0 mg/kg/injection, schedule: Q01DX001 (ip), vehicle: Klucel (hydroxypropylcellulose) (HPC) 89 % of control

CCCCCCCCCCC(=O)N(C(C)CC(C)C)C1CC(C)CC(C)(C)C1 (stereo not drawn)
inactive: [6] 104 % of control | [7] 100 % of control | [8] 101 % of control

CCSc1cccc2nncn12
inactive: dose: 50.0 mg/kg/injection, schedule: Q01DX001 (ip), vehicle: saline 103 % of control | dose: 100.0 mg/kg/injection, schedule: Q01DX001 (ip), vehicle: saline 100 % of control | dose: 200.0 mg/kg/injection, schedule: Q01DX001 (ip), vehicle: saline 100 % of control

Nc1nnc(SCc2ccccc2)s1
inactive: dose: 3.13 mg/kg/injection, schedule: Q01DX009 (ip), vehicle: saline with Tween-80 102 % of control | dose: 6.25 mg/kg/injection, schedule: Q01DX009 (ip), vehicle: saline with Tween-80 104 % of control | dose: 12.5 mg/kg/injection, schedule: Q01DX009 (ip), vehicle: saline with Tween-80 109 % of control | dose: 25.0 mg/kg/injection, schedule: Q01DX009 (ip), vehicle: saline with Tween-80 103 % of control

COc1ccc(Nc2ncnc3ccccc23)cc1CN(CCCl)CCCl
inactive: dose: 100.0 mg/kg/injection, schedule: Q01DX001 (ip), vehicle: Klucel (hydroxypropylcellulose) (HPC) 100 % of control | dose: 200.0 mg/kg/injection, schedule: Q01DX001 (ip), vehicle: Klucel (hydroxypropylcellulose) (HPC) 90 % of control

Cn1c(N)c(C(=O)Cc2ccccc2)c(=O)n(C)c1=O
inactive: dose: 100.0 mg/kg/injection, schedule: Q04DX003 (ip), vehicle: Klucel (hydroxypropylcellulose) (HPC) 109 % of control | dose: 200.0 mg/kg/injection, schedule: Q04DX003 (ip), vehicle: Klucel (hydroxypropylcellulose) (HPC) 100 % of control | dose: 400.0 mg/kg/injection, schedule: Q04DX003 (ip), vehicle: Klucel (hydroxypropylcellulose) (HPC) 109 % of control

CC(C)CCCCc1c[nH]c(=O)[nH]c1=O
inactive: [9] 95 % of control | dose: 200.0 mg/kg/injection, schedule: Q01DX009 (ip), vehicle: saline with Tween-80 90 % of control | dose: 400.0 mg/kg/injection, schedule: Q01DX009 (ip), vehicle: saline with Tween-80 100 % of control

Cc1ccc2ccc(CC(O)(c3ccccc3)c3ccccc3)nc2c1
inactive: dose: 50.0 mg/kg/injection, schedule: Q01DX009 (ip), vehicle: saline with Tween-80 100 % of control | [9] 88 % of control

O=C(c1cc(F)ccc1Nc1ccccc1)N1CCOCC1
inactive: [10] 98 % of control | [11] 100 % of control | [12] 98 % of control and 109 % of control

CCCCCCC1OCN2CCCCC12 (stereo not drawn)
inactive: dose: 50.0 mg/kg/injection, schedule: Q01DX005 (ip), vehicle: saline 105 % of control | dose: 100.0 mg/kg/injection, schedule: Q01DX005 (ip), vehicle: saline 107 % of control | dose: 200.0 mg/kg/injection, schedule: Q01DX005 (ip), vehicle: saline 109 % of control

Cc1cc(N/N=C(\c2ccccc2)c2ccccn2)nc2ccccc12
inactive: [6] 104 % of control | [7] 103 % of control | [8] 94 % of control

CC(=O)OCC1OC(Nc2[nH]c(=O)n(C)c(=O)c2C(=O)CCl)C(OC(C)=O)C(OC(C)=O)C1OC(C)=O (stereo not drawn)
inactive: [4] 114 % of control | [5] 105 % of control | dose: 240.0 mg/kg/injection, schedule: Q01DX005 (ip), vehicle: saline with Tween-80 124 % of control

CCCCCCCCCCCC(C)[N+](C)(C)[O-] (stereo not drawn)
inactive: [10] 102 % of control | [11] 96 % of control | [12] 87 % of control and 91 % of control

O=C(O)c1cc2ccccc2c(N=Nc2cc(C(F)(F)F)ccc2Cl)c1O
inactive: dose: 12.5 mg/kg/injection, schedule: Q01DX005 (ip), vehicle: saline with Tween-80 102 % of control | dose: 25.0 mg/kg/injection, schedule: Q01DX005 (ip), vehicle: saline with Tween-80 100 % of control | [6] 98 % of control and 100 % of control | [8] 86 % of control

CC[Se](CC)CC.CC[Se](CC)CC.C[CH2][Ge]([CH2]C)[O][Ge]([CH2]C)[CH2]C
inactive: dose: 3.12 mg/kg/injection, schedule: Q01DX009 (ip), vehicle: saline 99 % of control and 95 % of control | dose: 6.25 mg/kg/injection, schedule: Q01DX009 (ip), vehicle: saline 96 % of control (2×) and 97 % of control | [10] 101 % of control and 107 % of control and 96 % of control | [11] 117 % of control and 118 % of control

COc1cc2c(cc1-c1coc3cc(OCC=C(C)C)ccc3c1=O)OCO2
inactive: dose: 9.0 mg/kg/injection, schedule: Q01DX005 (ip), vehicle: Klucel (hydroxypropylcellulose) (HPC) 96 % of control | dose: 18.0 mg/kg/injection, schedule: Q01DX005 (ip), vehicle: Klucel (hydroxypropylcellulose) (HPC) 94 % of control | dose: 36.0 mg/kg/injection, schedule: Q01DX005 (ip), vehicle: Klucel (hydroxypropylcellulose) (HPC) 87 % of control | dose: 72.0 mg/kg/injection, schedule: Q01DX005 (ip), vehicle: Klucel (hydroxypropylcellulose) (HPC) 92 % of control
